The text below walks through data of ChEMBL document CHEMBL5038631, “2-(2-Hydroxyethyl)piperazine derivatives as potent human carbonic anhydrase inhibitors: Synthesis, enzyme inhibition, computational studies and antiglaucoma activity” (Eur J Med Chem, 2022).

Each structure is given as a SMILES string.

This test concerns the target Carbonic anhydrase 9 (Homo sapiens, UniProt Q16790). The test can be described thus: Inhibition of human CA9 incubated for 15 mins prior to testing by phenol red dye based stopped flow CO2 hydration assay.

In the case of `CN1CCN(C(=O)c2ccc(S(N)(=O)=O)cc2)CC1CCO` (racemic), the inhibition constant (Ki) amounted to 0.0068 µM. `NS(=O)(=O)c1ccc(C(=O)N2CCN(Cc3ccccc3)C(CCO)C2)cc1` (racemic) yielded a Ki of 0.0288 µM.

Compound `CN1CCN(C(=O)c2ccc(S(N)(=O)=O)cc2)[C@@H](CCO)C1` displayed an inhibitory constant (Ki) of 0.0312 µM.

`NS(=O)(=O)c1ccc(C(=O)N2CCNC[C@H]2CCO)cc1` gave a Ki of 0.0605 µM. This Ki is about 1.9-fold higher than that of the compound before. The figure for `NS(=O)(=O)c1ccc(C(=O)N2CCN(Cc3ccccc3)[C@H](CCO)C2)cc1` is 0.0599 µM; for `NS(=O)(=O)c1ccc(C(=O)N2CCNC[C@@H]2CCO)cc1` it is 0.0519 µM. On to `NS(=O)(=O)c1ccc(C(=O)N2CCN(Cc3ccccc3)C[C@H]2CCO)cc1`, for which the inhibition constant Ki was determined as 0.0352 µM.

For `NS(=O)(=O)c1ccc(C(=O)N2CCNC(CCO)C2)cc1` (racemic), the Ki was found to be 0.0344 µM.

As for `CN1CCN(C(=O)c2ccc(S(N)(=O)=O)cc2)C[C@H]1CCO`, the inhibitory constant (Ki) turned out to be 0.0068 µM. Regarding `CN1CCN(C(=O)c2ccc(S(N)(=O)=O)cc2)[C@H](CCO)C1`, the inhibition constant Ki is 0.0249 µM. Against the preceding compound, the Ki is about 3.7-fold higher. The compound `NS(=O)(=O)c1ccc(C(=O)N2CCN[C@H](CCO)C2)cc1` had an inhibitory constant (Ki) of 0.0533 µM. In turn, `NS(=O)(=O)c1ccc(C(=O)N2CCN(Cc3ccccc3)C[C@@H]2CCO)cc1` showed a Ki of 0.0147 µM.

In general, Ki refers to a dissociation constant, usually derived from enzyme kinetics or from competition with a known ligand.
